According to PubChem BioAssay (NCI):
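Results reflect a 48-hour exposure of cells in 96-well plates to compound at five concentrations. GI50 is the concentration that inhibits growth by half. TGI marks complete inhibition of growth.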

How the values were obtained:
Assay in all cases: NCI anticancer screen, dose series, 48 h
SW-620 colon = system: SW-620 colon
OVCAR-8 ovarian = system: OVCAR-8 ovarian
LOX IMVI melanoma = system: LOX IMVI melanoma
EKVX NSCLC = system: EKVX NSCLC
SN12C renal = system: SN12C renal
UACC-62 melanoma = system: UACC-62 melanoma
ACHN renal = system: ACHN renal
COLO 205 colon = system: COLO 205 colon
K-562 leukemia = system: K-562 leukemia
HT29 colon = system: HT29 colon

| Structure (SMILES) | TGI (SW-620 colon) [µM] | TGI (OVCAR-8 ovarian) [µM] | TGI (LOX IMVI melanoma) [µM] | TGI (EKVX NSCLC) [µM] | TGI (SN12C renal) [µM] | TGI (UACC-62 melanoma) [µM] | TGI (ACHN renal) [µM] | TGI (COLO 205 colon) [µM] | TGI (K-562 leukemia) [µM] | TGI (HT29 colon) [µM] | GI50 (SW-620 colon) [µM] | GI50 (OVCAR-8 ovarian) [µM] | GI50 (LOX IMVI melanoma) [µM] | GI50 (EKVX NSCLC) [µM] | GI50 (SN12C renal) [µM] | GI50 (UACC-62 melanoma) [µM] | GI50 (ACHN renal) [µM] | GI50 (COLO 205 colon) [µM] | GI50 (HT29 colon) [µM] | GI50 (K-562 leukemia) [µM] |
| --- | --- | --- | --- | --- | --- | --- | --- | --- | --- | --- | --- | --- | --- | --- | --- | --- | --- | --- | --- | --- |
| COc1cc(/C=C/C(=O)Oc2ccccc2)ccc1C(=O)O/C=C/c1ccccc1 | > 100 | > 100 | > 100 | > 100 | > 100 | > 100 | > 100 | > 100 | > 100 | > 100 |  |  |  |  |  |  |  |  |  |  |
| CC(C)(C)OC(=O)N1C2CCCC23O[C@@H]1c1cc2c(cc1C3=O)OCO2 (stereo not given in full) | > 100 | > 100 |  | > 100 | > 100 | 67 | > 100 |  | > 100 | > 100 |  |  |  |  |  |  |  |  |  |  |
| Cc1ccc2[c](c1)[Sn]([c]1ccccc1)([c]1ccccc1)[c]1cc(C)ccc1N2C | 53.7 | > 100 | 29.6 | > 100 | > 100 | > 100 | > 100 | 52.2 |  | > 100 | 18.9 | 57.3 | 13.2 | 41.4 | > 100 | 20.9 | 66.8 | 23.1 | 37.3 |  |
| COc1cc(C(=O)O[C@H](C(N)=O)[C@]2(C)CO2)c2cccc(C)c2c1 | 1.72 | 0.438 |  | 4.61 | 0.245 | 0.154 |  | 11.4 |  |  | < 0.01 | < 0.01 |  | 0.35 | < 0.01 | 0.02 |  |  | < 0.0418 |  |
| O=C1c2ccccc2C(=O)N1C/C=N/NS(=O)(=O)c1ccc(Br)cc1 | > 100 | > 100 |  | > 100 | > 100 | > 100 | > 100 | > 100 | > 100 | > 100 |  |  |  |  |  |  |  |  |  |  |
| O=C(NC1CCCCC1)c1ccc(Nc2ncnc3c2cnn3-c2ccccc2)cc1 | > 100 | 19.3 | 22.3 |  | > 100 | > 100 | 11 | > 100 |  |  | > 100 | 3.87 | 4.49 |  | 8.26 | 17.5 | 3.32 | 12.5 |  |  |
| COc1cc(/C=C2\CCC/C(=C\c3ccc(OCC4CO4)c(OC)c3)C2=O)ccc1OCC1CO1 (stereo not given) | 5.09 | 9.11 | 3.78 |  | 8.71 | 4.8 |  | 3.54 | > 100 | 4.62 | 2.46 | 2.1 | 1.23 |  | 2.84 | 2.02 |  | 2 | 2.25 | 3.46 |
| Nc1c(C(=O)Nc2ccccc2Cl)sc2nc3c(cc12)C(=O)CCC3 | > 100 | > 100 | > 100 |  | > 100 | > 100 | > 100 | 3.54 | > 100 | > 100 | 0.556 | > 25 | 51.9 |  | > 100 | 0.789 | 15.9 | 0.724 | 0.61 | 0.493 |
